Measurements from ChEMBL document CHEMBL4190378, “Synthesis and evaluation of new 2-chloro-4-aminopyrimidine and 2,6-dimethyl-4-aminopyrimidine derivatives as tubulin polymerization inhibitors” (Bioorg Med Chem Lett, 2018).
Activity calls are given as the source filed them. The calls are words filed in the database; no cut-off is given here.

How the values were obtained:
A549 = assay: Antiproliferative activity against human A549 cells incubated for 48 hrs by MTT assay; format: functional, cell-based; conditions: A549, 48 h
HeLa [1] = assay: Antiproliferative activity against human HeLa cells incubated for 48 hrs by MTT assay; format: functional, cell-based
HeLa [2] = assay: Induction of cell cycle arrest in human HeLa cells assessed as accumulation at G2/M phase at 500 nM incubated for 24 hrs by propidium iodide staining based flow cytometry; format: functional
HeLa [3] = assay: Induction of cell cycle arrest in human HeLa cells assessed as accumulation at subG1 phase at 100 nM incubated for 24 hrs by propidium iodide staining based flow cytometry; format: functional
HeLa [4] = assay: Inhibition of tubulin polymerization in human HeLa cells assessed as morphological changes by measuring narrowing of nucleus at 0.5 uM incubated for 24 hrs by laser scanning confocal microscopy; format: functional, cell-based
HeLa [5] = assay: Induction of apoptosis in human HeLa cells assessed as early apoptotic cells level at 100 nM incubated for 48 hrs by Annexin-V/FITC and propidium iodide staining based flow cytometry (reference value: 0.16%); format: functional
HeLa [6] = assay: Induction of apoptosis in human HeLa cells assessed as necrotic cells level at 100 nM incubated for 48 hrs by Annexin-V/FITC and propidium iodide staining based flow cytometry (reference value: 0.03%); format: functional
HeLa [7] = assay: Induction of apoptosis in human HeLa cells assessed as early apoptotic cells level at 100 nM incubated for 72 hrs by Annexin-V/FITC and propidium iodide staining based flow cytometry (reference value: 0.16%); format: functional
HeLa [8] = assay: Induction of apoptosis in human HeLa cells assessed as late apoptotic cells level at 100 nM incubated for 72 hrs by Annexin-V/FITC and propidium iodide staining based flow cytometry (reference value: 0.02%); format: functional
HeLa [9] = assay: Induction of apoptosis in human HeLa cells assessed as necrotic cells level at 100 nM incubated for 72 hrs by Annexin-V/FITC and propidium iodide staining based flow cytometry (reference value: 0.03%); format: functional
HeLa [10] = assay: Induction of apoptosis in human HeLa cells assessed as late apoptotic cells level at 500 nM incubated for 72 hrs by Annexin-V/FITC and propidium iodide staining based flow cytometry (reference value: 0.02%); format: functional
HeLa [11] = assay: Induction of apoptosis in human HeLa cells assessed as necrotic cells level at 500 nM incubated for 72 hrs by Annexin-V/FITC and propidium iodide staining based flow cytometry (reference value: 0.03%); format: functional
HeLa [12] = assay: Induction of mitochondrial transmembrane potential loss in human HeLa cells assessed as JC1 dye aggregates level at 50 nM incubated for 24 hrs by JC1 staining based flow cytometry (reference value: 95.85%); format: functional
HeLa [13] = assay: Induction of mitochondrial transmembrane potential loss in human HeLa cells at 100 nM incubated for 24 hrs by JC1 staining based fluorescence microscopy; format: functional, cell-based
HeLa [14] = assay: Induction of mitochondrial transmembrane potential loss in human HeLa cells at 500 nM incubated for 24 hrs by JC1 staining based fluorescence microscopy; format: functional, cell-based

IC50 (A549): 113 nM | IC50 (HeLa [1]): 93 nM
Compound: COc1ccc(N(C)c2cc(C)nc(C)n2)cc1O
Activity (HeLa [2]): 55.6% | Activity (HeLa [3]): Active | inhibition (HeLa [4]): Active | Activity (HeLa [5]): 23.16% | Activity (HeLa [6]): 0.07% | Activity (HeLa [7]): 21.09% | Activity (HeLa [8]): 11.63% | Activity (HeLa [9]): 2.08% | Activity (HeLa [10]): 18.61% | Activity (HeLa [11]): 3.54% | Activity (HeLa [12]): 88.35% | Activity (HeLa [13]): Active | Activity (HeLa [14]): Active
